Like-named read-outs stand apart in the source and are kept apart here. Where a SMILES comes first, the peptide text is derived from it. [ ]: non-standard residue; d: D form. The star is where a group is joined. ξ: configuration not given here. X1 = O=C(O)CC[C@H](NC(=O)N[C@@H](CCCCNC(=O)CCCCCCC(=O)*)C(=O)O)C(=O)O; DOTA = O=C(O)CN1CCN(CC(=O)O)CCN(CC(=O)*)CCN(CC(=O)O)CC1; ξF = NC(Cc1ccccc1)C(=O)O
What was measured:
[1] = test system: PSMA+ PC3 PIP and PSMA− PC3 flu cells; assay: T1-weighted MR imaging of cell pellets; format: cell-based, human; conditions: PSMA+ PC3 PIP vs PSMA− PC3 flu cell pellets
Experimental: FIG. 4A through FIG. 4C show T1 contrast enhancement generated by Gd3 in an isogenic human PC3 prostate cancer cell pair, PSMA+ PIP and PSMA− flu cells; (A) Color coded T1 maps of PIP and flu cells. Relaxation rates were determined at 25° C. at 9.4 T; (B) Quantification of T1 changes (ΔT1) in PIP and flu cells (n=4, P<0.05) following treatment with Gd3; (C) cellular uptake of Gd3 in PIP and flu cells.
(§1) When imaged at 9.4 T and 25° C., solution phantoms indicated r1 relaxivities in PBS that vary between 3.0 and 6.2 mM^−1 s^−1 per Gd(III) and between 3.0 and 12.5 mM-1 s-1 per contrast agent (Table 1). As expected, Gd1 has the lowest relaxivity followed by Gd2 and Gd3 at 25° C. To determine selectivity and specificity of the agents, human prostate cancer cells genetically modified to express high amounts of PSMA (PC3 PIP) and the corresponding wild-type, PSMA-non-expressing cells (PC3 flu) were selected as negative control (Banerjee, Angew., 2001). […] Enhancement and T1 measurements by means of MRI of the cell pellets in the presence and absence of 50 μM Gd3 indicated higher enhancement and difference in T1 relaxation rates, ΔR1 between Gd3 treated PIP cells and the control PIP cells as compared to the Gd3-treated flu cells and the control flu control cells, after removal of the Gd3 from the cell system by washing with standard medium (FIG. 4B and FIG. 4C).

PSMA+ PC3 PIP cells [2] = assay: ICP-MS analysis of Gd in cell pellets; format: cell-based, human
Text: Thus, the difference between ΔR1 of the PIP cells and that of the flu cells reflects the change due to the specific Gd3 binding to PSMA in the PIP cells.

[3] = r1 relaxivity of solution phantoms at 9.4 T and 25° C.; format: physicochemical; conditions: for r1 relaxivity, ionic (per Gd(III)) / r1 relaxivity, molecular (per contrast agent): 9.4 T, 25° C., PBS; for r1 relaxivity: column T1 of Table 1
Experimental: as §1

PSMA = PSMA (Homo sapiens, UniProt Q04609); assay: fluorescence-based PSMA inhibition assay (Example 1); format: biochemical
Sequence of PSMA (Q04609 whole entry): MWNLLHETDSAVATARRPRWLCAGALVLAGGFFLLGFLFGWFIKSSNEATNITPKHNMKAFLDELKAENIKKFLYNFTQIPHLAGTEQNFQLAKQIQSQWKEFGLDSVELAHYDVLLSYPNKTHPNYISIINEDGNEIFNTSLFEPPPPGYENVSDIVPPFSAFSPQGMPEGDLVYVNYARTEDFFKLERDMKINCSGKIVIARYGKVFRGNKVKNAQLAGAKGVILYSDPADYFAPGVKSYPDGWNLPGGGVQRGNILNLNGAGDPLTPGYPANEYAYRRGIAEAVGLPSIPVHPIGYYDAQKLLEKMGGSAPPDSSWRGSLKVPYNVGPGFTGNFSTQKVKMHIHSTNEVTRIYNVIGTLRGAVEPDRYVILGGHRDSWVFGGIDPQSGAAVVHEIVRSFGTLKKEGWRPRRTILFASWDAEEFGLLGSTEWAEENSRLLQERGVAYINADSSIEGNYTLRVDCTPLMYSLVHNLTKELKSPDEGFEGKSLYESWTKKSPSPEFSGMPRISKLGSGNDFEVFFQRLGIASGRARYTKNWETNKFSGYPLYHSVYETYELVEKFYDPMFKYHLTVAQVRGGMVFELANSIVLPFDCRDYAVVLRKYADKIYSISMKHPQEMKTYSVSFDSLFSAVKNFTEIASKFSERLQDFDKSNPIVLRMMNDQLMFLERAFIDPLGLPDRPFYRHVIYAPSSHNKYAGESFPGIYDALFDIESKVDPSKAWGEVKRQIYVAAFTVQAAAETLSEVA

PSMA+ PC3 PIP cells [4] = assay: cell internalization assay (ICP-MS); format: cell-based, human
Experimental: FIG. 6A and FIG. 6B show the % ID of Gd3 cell surface bound (A) and internalized (B) at 1, 4 and 24 h;
Moreover, slightly higher non-specific uptake was associated with Gd2 in PSMA− PC3 flu cells, which might be related to the lower K1 value of this agent compared to Gd1. As a further check on cellular uptake and internalization, a dual modality Gd monomeric contrast agent labeled with Rhodamine-Red™-X was prepared to confirm the PSMA-mediated internalization of this class of contrast agents (FIG. 5D).
A time-dependent internalization study was performed for Gd3 (FIG. 6A and FIG. 6B) after 1, 4 and 24 h of incubation. […] A similar amount of Gd (˜33-37% ID) was associated with the cell membrane at those same time-points.

[5] = test system: PSMA+ PC-3 PIP and PSMA− PC-3 flu tumors; assay: small animal PET-CT imaging; format: in vivo, NOD/SCID mice; conditions: 2 h post-injection
Experimental: Mice (n=3 for ^86Y-4 or ^86Y-6 and n=2 for ^86Y-5) were injected via the tail vein with 3.33-6.21 MBq (90-168 μCi) of radiotracer formulated in 100 μL of saline at pH ˜7. […] At different time points, anesthetized individual mice were placed in the prone position on the scanner gantry and secured with medical tape while the anesthesia flow rate was increased to 0.8 L/min. Images were reconstructed using the FORE/2D-OSEM method (two iterations, 16 subsets) and included correction for radioactive decay, scanner dead time, and scattered radiation. Partial volume correction (PVC) was not performed. After each PET scan, a CT scan was acquired for anatomic co-registration. To facilitate PET and CT image co-registration, a special animal bed was employed which fits both the PET and CT scanners. The animals were under anesthesia and immobilized when moving between scanners as well as during both scans. The reconstructed PET and CT images were then manually co-registered through rigid transformation, by aligning natural landmarks (such as the animal limbs and the bed contour) using the AMIDE software (from sourceforge.net/amide).
Dynamic, whole-body PET and CT images were acquired on an eXplore VISTA small-animal PET (GE Healthcare, Little Chalfont, Buckinghamshire, UK) and an X-SPECT small SPECT/CT system (Gamma Medica Ideas, Northridge, Calif.), respectively.

PSMA− PC3 flu cells = assay: cell viability, MTS assay; format: cell-based, human; conditions: 24 h, up to Gd(III) concentration of 1 mM
Experimental: Prior to evaluating Gd3 for live mouse imaging, its biocompatibility was examined using a cell proliferation assay. Various concentrations of Gd3 were incubated with PSMA+PC3 PIP and PSMA− PC3 flu cells, for 24 h. […] However, Gd(III) concentrations of >1 mM affected PSMA+PC3 PIP cell viability (FIG. 8). The observed level of PSMA+PC3 PIP cell death may be attributable to high cell internalization of Gd3, and the long incubation time employed (24 h).

[6] = test system: PSMA+ PC3 PIP and PSMA− PC3 flu tumor xenografts; format: in vivo
PSMA+ PC3 PIP cells [7] = assay: cell viability, MTS assay; format: cell-based, human; conditions: 24 h
[8] = PSMA+ PC3 PIP cells, 4 h incubation
[9] = 0.05 mmol/Kg i.v., first 20 min after injection

Molecule: O=C([O-])CN1CCN(CC(=O)[O-])CCN(CC(=O)NCCCCC(NC(=O)CN2CCN(CC(=O)[O-])CCN(CC(=O)[O-])CCN(CC(=O)[O-])CC2)C(=O)NC(CCCCNC(=O)CCCCCCC(=O)NCCCC[C@H](NC(=O)N[C@@H](CCC(=O)O)C(=O)O)C(=O)O)C(=O)O)CCN(CC(=O)[O-])CC1.[Gd+3].[Gd+3] (stereo partly drawn) [Gd2, (30S,34S)-2,9,17,24,32-pentaoxo-1-(4,7,10-tris(carboxymethyl)-1,4,7,10-tetraazacyclododecan-1-yl)-8-(2-(4,7,10-tris(carboxymethyl)-1,4,7,10-tetraazacyclododecan-1-yl)acetamido)-3,10,16,25,31,33-hexaazahexatriacontane-11,30,34,36-tetracarboxylic acid, digadolinium(III) salt]
- T1-weighted MR contrast of cell pellets [1]: did not demonstrate T1-weighted MR contrast or changes in R1
- estimated intracellular Gd(III) concentration (PSMA+ PC3 PIP cells [2]): ~12.5 µM
- r1 relaxivity, ionic (per Gd(III)) [3]: 6.2 mM⁻¹ s⁻¹
- r1 relaxivity, molecular (per contrast agent) [3]: 12.5 mM⁻¹ s⁻¹
- r1 relaxivity [3]: 5.44 mM⁻¹ s⁻¹
- Ki (PSMA): 0.0182 µM
- percent of incubated dose associated with the cell surface (PSMA+ PC3 PIP cells [4]; [8]): 3.51±1.32 % ID
- percent of incubated dose internalized (PSMA+ PC3 PIP cells [4]; [8]): 21.63±3.51 % ID

Molecule: O=C([O-])CN1CCN(CC(=O)[O-])CCN(CC(=O)NC(Cc2ccccc2)C(=O)NC(Cc2ccccc2)C(=O)NC(Cc2ccccc2)C(=O)N[C@@H](CCCCNC(=O)CCCCCCC(=O)NCCCC[C@H](NC(=O)N[C@@H](CCC(=O)O)C(=O)O)C(=O)O)C(=O)O)CCN(CC(=O)[O-])CC1.[86Y+3] (some centres unmarked) [^86Y-5] ({DOTA}-[ξF][ξF][ξF]K(X1)-OH)
- non-specific accumulation on PET/CT [5]: non-specific accumulation in the gastrointestinal tract

Molecule: (3S,7S)-5,13,20,28-tetraoxo-32-(2,4,6-tris(1-(2-hydroxy-3-(4,7,10-tris(carboxymethyl)-1,4,7,10-tetraazacyclododecan-1-yl)propyl)-1H-1,2,3-triazol-4-yl)phenoxy)-4,6,12,21,27-pentaazadotriacontane-1,3,7,22-tetracarboxylic acid, trigadolinium(III) salt [Gd3]
- T1-weighted MR contrast of cell pellets [1]: significant MR contrast enhancement in PSMA+PC3 PIP cells
- cell viability (PSMA− PC3 flu cells): ~90%
- estimated intracellular Gd(III) concentration (PSMA+ PC3 PIP cells [2]): ~22.82 µM
- contrast enhancement at PIP tumor ([6]; 0.05 mmol/Kg i.v., 40 min post-injection): 36%
- lowering of T1 value, PIP tumor [6, 9]: 0.57 s
- lowering of T1 value, PSMA flu tumor [6, 9]: 0.63 s
- lowering of T1 value, muscle [6, 9]: 0.261 s
- contrast enhancement at PIP tumor ([6]; 0.05 mmol/Kg i.v., until 1.5 h post injection): 30%
- highest contrast enhancement, PSMA− PC3 flu tumors ([6]; 0.06 mmol/kg i.v., 20 min post-injection): ~24%
- enhancement in R1, PSMA+ PC3 PIP tumor ([6]; 0.06 mmol/kg i.v., 190 min after injection): 24%
- ΔR1, PSMA− PC3 flu tumors ([6]; 0.06 mmol/kg i.v., after 40 min): < 20%
- average enhancement in R1 values, PSMA+ PC3 PIP tumor ([6]; 0.06 mmol/kg i.v., first 40 to 60 min): 36%
- minimum T1 value of PSMA+ PC3 PIP tumor ([6]; 0.06 mmol/kg i.v., first 40 to 60 min, n=4): 1,819±76 ms
- enhancement in R1, PSMA+ PC3 PIP tumor ([6]; 0.06 mmol/kg i.v., until 90 min): 29%
- r1 relaxivity, ionic (per Gd(III)) [3]: 3.3 mM⁻¹ s⁻¹
- r1 relaxivity, molecular (per contrast agent) [3]: 9.81 mM⁻¹ s⁻¹
- r1 relaxivity [3]: 12.47 mM⁻¹ s⁻¹
- Ki (PSMA): 0.00719 µM
- amount of Gd associated with the cell membrane (PSMA+ PC3 PIP cells [4]; PSMA+ PC3 PIP cells, 1, 4 and 24 h): 33-37 % ID
- percent of incubated dose internalized (PSMA+ PC3 PIP cells [4]; PSMA+ PC3 PIP cells, 1 h incubation): 28.30±0.47 % ID
- percent of incubated dose internalized (PSMA+ PC3 PIP cells [4]; [8]): 39.92±3.59 % ID
- percent of incubated dose internalized (PSMA+ PC3 PIP cells [4]; PSMA+ PC3 PIP cells, 24 h incubation): ~89.69±3.90 % ID
- Gd(III) concentrations that affected cell viability (PSMA+ PC3 PIP cells [7]): > 1 mM

From patent US10683272B2 (THE JOHNS HOPKINS UNIVERSITY, priority 2014, dated 2020)
